# From patent US7183276B2, “Azole compounds” (Takeda Pharmaceutical Company Limited, priority 2002, dated 2007)
row,SMILES,melting point [°C]
1,"O=C(CCc1oc(-n2cnc3ccccc32)nc1-c1ccc(Cl)cc1)NCc1cc(Br)ccc1F [Example 167, 3-[2-(1H-benzimidazol-1-yl)-4-(4-chlorophenyl)-5-oxazolyl]-N-(5-bromo-2-fluorobenzyl)propionamide]",183 to 184
2,COP(=O)(Cc1ccc(NC(=O)CCc2oc(-c3ccccc3)nc2-c2ccc(Cl)cc2)cc1)OC,153 to 154
3,CCOP(=O)(Cc1ccc(NC(=O)CCc2sc(-c3ccccc3)nc2-c2ccc(Cl)cc2)cc1)OCC,164 to 165
4,"COc1ccccc1CNC(=O)CCc1oc(-n2cnc3ccccc32)nc1-c1ccc(Cl)cc1 [Example 133, 3-[2-(1H-benzimidazol-1-yl)-4-(4-chlorophenyl)-5-oxazolyl]-N-(2-methoxybenzyl)propionamide]",210 to 211
5,"Cc1ccc(CNC(=O)CCCc2sc(-n3cnc4ccccc43)nc2-c2ccc(Cl)cc2)cc1 [Example 217, 4-[2-(1H-benzimidazol-1-yl)-4-(4-chlorophenyl)-5-thiazolyl]-N-(4-methylbenzyl)butanamide]",138 to 139
6,"CCOC(=O)Cc1ccc(NC(=O)CCc2oc(-n3cnc4ccccc43)nc2-c2ccc(Cl)cc2)cc1 [Example 76, 3-[2-(1H-benzimidazol-1-yl)-4-(4-chlorophenyl)-5-oxazolyl]-N-[4-(ethoxycarbonylmethyl)phenyl]propionamide]",181 to 182
7,"O=C(CCc1oc(-n2cnc3ccccc32)nc1-c1ccc(Cl)cc1)NCc1ccc(Cl)cc1F [Example 159, 3-[2-(1H-benzimidazol-1-yl)-4-(4-chlorophenyl)-5-oxazolyl]-N-(4-chloro-2-fluorobenzyl)propionamide]",189 to 191
8,CCOP(=O)(Cc1ccc(NC(=O)CCc2sc(NC(=O)c3ccccn3)nc2-c2ccc(Cl)cc2)cc1)OCC,184 to 185
9,"O=C(CCc1oc(-n2cnc3ccccc32)nc1-c1ccc(Cl)cc1)NCc1cc(F)cc(C(F)(F)F)c1 [Example 163, 3-[2-(1H-benzimidazol-1-yl)-4-(4-chlorophenyl)-5-oxazolyl]-N-[3-fluoro-5-(trifluoromethyl)benzyl]propionamide]",198 to 200
10,"Cc1ncn(-c2nc(-c3ccc(Cl)cc3)c(CCC(N)=O)o2)c1C [Example 19, 3-[4-(4-chlorophenyl)-2-(4,5-dimethyl-1-imidazolyl)-5-oxazolyl]propionamide]",232 to 233
11,"CN(C)C(=O)Cc1ccc(NC(=O)CCc2oc(-n3cnc4ccccc43)nc2-c2ccc(Cl)cc2)cc1 [Example 142, 2-[4-({3-[2-(1H-benzimidazol-1-yl)-4-(4-chlorophenyl)-5-oxazolyl]propanoyl}amino)phenyl]-N,N-dimethylacetamide]",207 to 208
12,"CN(Cc1ccc(NC(=O)CCc2oc(-c3ccccc3)nc2-c2ccc(Cl)cc2)cc1)C1CCOCC1 [Example 94, 3-[4-(4-chlorophenyl)-2-phenyl-5-oxazolyl]-N-(4-{[N-methyl-N-(4-tetrahydropyranyl)amino]methyl}phenyl)propionamide]",154 to 155
13,"O=C(CCc1oc(-n2cnc3ccccc32)nc1-c1ccc(Cl)cc1)NCc1c(F)cccc1F [Example 156, 3-[2-(1H-benzimidazol-1-yl)-4-(4-chlorophenyl)-5-oxazolyl]-N-(2,6-difluorobenzyl)propionamide]",225 to 226
14,CCOP(=O)(Cc1ccccc1NC(=O)CCCc1oc(-n2cnc3ccccc32)nc1-c1ccc(Cl)cc1)OCC,133 to 136
15,CCOP(=O)(Cc1ccc(NC(=O)CCc2oc(Cc3ccccc3)nc2-c2ccc(Cl)cc2)cc1)OCC,161 to 162
16,"Cc1ccc(Sc2nc(-c3ccc(Cl)cc3)c(CCC(N)=O)o2)cc1 [Example 10, 3-[4-(4-chlorophenyl)-2-[(4-methylphenyl)sulfanyl]-5-oxazolyl]propionamide]",155 to 156
17,"O=C(CCc1oc(-n2cnc3ccccc32)nc1-c1ccc(Cl)cc1)Nc1ccc(CN2CCCCC2)cc1 [Example 88, 3-[2-(1H-benzimidazol-1-yl)-4-(4-chlorophenyl)-5-oxazolyl]-N-{4-[(1-piperidinyl)methyl]phenyl}propionamide]",194 to 195
18,"O=C(CCCc1oc(-n2cnc3ccccc32)nc1-c1ccc(Cl)cc1)Nc1ccc(S(=O)(=O)Nc2nccs2)cc1 [Example 104, 4-[2-(1H-benzimidazol-1-yl)-4-(4-chlorophenyl)-5-oxazolyl]-N-(4-{[(2-thiazolyl)amino]sulfonyl}phenyl)butanamide]",243 to 244
19,"CC(C)c1ccc(NC(=O)CCc2oc(-n3cnc4ccccc43)nc2-c2ccc(Cl)cc2)cc1 [Example 126, 3-[2-(1H-benzimidazol-1-yl)-4-(4-chlorophenyl)-5-oxazolyl]-N-(4-isopropylphenyl)propionamide]",232 to 233
20,"O=C(CCc1oc(-n2cnc3ccccc32)nc1-c1ccc(Cl)cc1)N1CCS(=O)(=O)C1 [Example 344, 3-{3-[2-(1H-benzoimidazol-1-yl)-4-(4-chlorophenyl)-5-oxazolyl]propanoyl}thiazolidine-1,1-dioxide]",136 to 137
21,"Cc1cc(Cl)ccc1CNC(=O)CCc1oc(-n2cnc3ccccc32)nc1-c1ccc(Cl)cc1 [Example 178, 3-[2-(1H-benzimidazol-1-yl)-4-(4-chlorophenyl)-5-oxazolyl]-N-(4-chloro-2-methylbenzyl)propionamide]",200 to 201

row,SMILES,melting point [°C]
1,"O=C(CCc1oc(-n2cnc3ccccc32)nc1-c1ccc(Cl)cc1)NCc1cccc(Br)c1 [Example 171, 3-[2-(1H-benzimidazol-1-yl)-4-(4-chlorophenyl)-5-oxazolyl]-N-(3-bromobenzyl)propionamide]",181 to 183
2,"COC(=O)c1ccc(NC(=O)CCCc2oc(-c3ccccc3)nc2-c2ccc(Cl)cc2)cc1 [Example 50, 4-[4-(4-chlorophenyl)-2-phenyl-5-oxazolyl]-N-[4-(methoxycarbonyl)phenyl]butanamide]",170 to 171
3,"COc1ccc(OC)c(CNC(=O)CCc2oc(-n3cnc4ccccc43)nc2-c2ccc(Cl)cc2)c1 [Example 179, 3-[2-(1H-benzimidazol-1-yl)-4-(4-chlorophenyl)-5-oxazolyl]-N-(2,5-dimethoxybenzyl)propionamide]",193 to 194
4,"O=C(CCc1oc(-n2cnc3ccccc32)nc1-c1ccc(Cl)cc1)NC1CCC(O)CC1 (centres unmarked) [Example 304, 3-[2-(1H-benzoimidazol-1-yl)-4-(4-chlorophenyl)-5-oxazolyl]-N-(4-hydroxycyclohexyl)propanamide]",204 to 206
5,"CCN(CC)C(=O)Cc1ccc(NC(=O)CCc2oc(-n3cnc4ccccc43)nc2-c2ccc(Cl)cc2)cc1 [Example 106, 2-[4-({3-[2-(1H-benzimidazol-1-yl)-4-(4-chlorophenyl)-5-oxazolyl]propanoyl}amino)phenyl]-N,N-diethylacetamide]",209 to 210
6,"NC(=O)CCc1oc(-c2ccc(F)cc2)nc1-c1ccc(Cl)cc1 [Example 23, 3-[4-(4-chlorophenyl)-2-(4-fluorophenyl)-5-oxazolyl]propionamide]",212 to 213
7,CCOP(=O)(Cc1ccc(NC(=O)CCc2sc(NC(=S)NC(=O)c3ccccc3)nc2-c2ccc(Cl)cc2)cc1)OCC,208 to 209
8,CCOP(=O)(OCC)C(O)c1ccc(NC(=O)CCc2oc(-n3cnc4ccccc43)nc2-c2ccc(Cl)cc2)cc1 (centres unmarked),171 to 172
9,"NC(=O)CCc1oc(-c2ccccc2)nc1-c1ccc(Cl)cc1 [Example 43, 3-[4-(4-chlorophenyl)-2-phenyl-5-oxazolyl]propionamide]",207 to 208
10,"Cc1ccc(C)c(CNC(=O)CCc2oc(-n3cnc4ccccc43)nc2-c2ccc(Cl)cc2)c1 [Example 181, 3-[2-(1H-benzimidazol-1-yl)-4-(4-chlorophenyl)-5-oxazolyl]-N-(2,5-dimethylbenzyl)propionamide]",218 to 219
11,"Cc1ccc(CNC(=O)CCc2oc(-n3cnc4ccccc43)nc2-c2ccc(Cl)cc2)c(C)c1 [Example 175, 3-[2-(1H-benzimidazol-1-yl)-4-(4-chlorophenyl)-5-oxazolyl]-N-(2,4-dimethylbenzyl)propionamide]",218 to 219
12,"O=C(CCc1oc(-n2cnc3ccccc32)nc1-c1cccc(Cl)c1)N1CCC(O)CC1 [Example 257, 1-{3-[2-(1H-benzoimidazol-1-yl)-4-(3-chlorophenyl)-5-oxazolyl]propanoyl}-4-piperidinol]",97 to 98
13,CCOP(=O)(Cc1ccc(NC(=O)CCc2oc(-n3cnc4ccccc43)nc2-c2cccc(Cl)c2)cc1)OCC,98 to 99
14,"CNS(=O)(=O)Cc1ccc(NC(=O)CCc2oc(-n3ccnc3)nc2-c2ccc(Cl)cc2)cc1 [Example 44, 3-[2-(1H-imidazol-1-yl)-4-(4-chlorophenyl)-5-oxazolyl]-N-(4-{[(methylamino)sulfonyl]methyl}phenyl)propionamide]",224 to 225
15,"O=C(CCc1oc(-n2cnc3ccccc32)nc1-c1ccc(Cl)cc1)N1CCCC(O)C1 (centres unmarked) [Example 300, 1-{3-[2-(1H-benzoimidazol-1-yl)-4-(4-chlorophenyl)-5-oxazolyl]propanoyl}-3-piperidinol]",104 to 105
16,CCOP(=O)(Cc1ccc(NC(=O)CCc2oc(C3CCCCC3)nc2-c2ccc(Cl)cc2)cc1)OCC,133 to 134
17,"O=C(CCc1oc(-n2cnc3ccccc32)nc1-c1ccc(Cl)cc1)N1CCC(O)CC1 [Example 192, 1-{3-[2-(1H-benzimidazol-1-yl)-4-(4-chlorophenyl)-5-oxazolyl]propanoyl}-4-piperidinol]",182 to 183
18,"O=C(CCc1oc(-n2cnc3ccccc32)nc1-c1ccc(Cl)cc1)N1CCSC1 [Example 259, 3-{3-[2-(1H-benzoimidazol-1-yl)-4-(4-chlorophenyl)-5-oxazolyl]propanoyl}thiazolidine]",125 to 126
19,"O=C(CCc1oc(-c2ccccc2)nc1-c1ccc(Cl)cc1)Nc1ccc(CN2CCCCC2)cc1 [Example 95, 3-[4-(4-chlorophenyl)-2-phenyl-5-oxazolyl]-N-{4-[(1-piperidinyl)methyl]phenyl}propionamide]",223 to 225
20,CCOP(=O)(CCCNC(=O)CCc1oc(-n2cnc3ccccc32)nc1-c1ccc(Cl)cc1)OCC,130 to 131
